ChEMBL document CHEMBL1141296, “Brunneins A-C, beta-carboline alkaloids from Cortinarius brunneus” (J Nat Prod, 2007)

What was measured:
[1] = test system: PC-3; test: Cytotoxicity against human PC3 cells upto 100 uM after 24 hrs by XTT method; format: functional, cell-based
[2] = biological target: T1, Acetylcholinesterase (Bos taurus) (UniProt P23795); test: Inhibition of bovine AChE at 100 uM by Ellman's method
T1 sequence (whole entry): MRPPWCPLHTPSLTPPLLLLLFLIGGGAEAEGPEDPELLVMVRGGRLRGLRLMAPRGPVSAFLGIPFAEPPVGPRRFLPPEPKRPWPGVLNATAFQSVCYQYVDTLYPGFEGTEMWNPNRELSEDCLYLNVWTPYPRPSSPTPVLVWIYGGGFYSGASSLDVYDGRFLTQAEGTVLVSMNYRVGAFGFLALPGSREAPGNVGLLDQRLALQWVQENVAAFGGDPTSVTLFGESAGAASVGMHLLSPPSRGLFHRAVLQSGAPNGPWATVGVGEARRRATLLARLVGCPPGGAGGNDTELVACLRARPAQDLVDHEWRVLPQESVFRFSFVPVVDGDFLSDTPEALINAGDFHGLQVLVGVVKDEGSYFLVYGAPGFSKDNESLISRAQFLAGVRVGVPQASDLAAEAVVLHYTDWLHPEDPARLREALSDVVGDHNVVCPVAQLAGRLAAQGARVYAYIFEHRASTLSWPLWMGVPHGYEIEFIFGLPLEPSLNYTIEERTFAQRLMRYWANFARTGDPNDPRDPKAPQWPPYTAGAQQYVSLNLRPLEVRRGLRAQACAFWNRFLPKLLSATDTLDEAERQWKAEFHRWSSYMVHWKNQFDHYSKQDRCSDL

[3] = biological target: Butyrylcholinesterase (Equus caballus) (UniProt Q9N1N9); test: Inhibition of equine BChE at 100 uM by Ellman's method

For `CC1=N[C@H](C(=O)O)Cc2c1[nH]c1cc(O)ccc21`, the Activity [1] was “Not toxic”, the inhibition [2] was under 50% and the inhibition [3] was under 50%.
